The subject of one data set is MDA-MB-231. The data set can be described thus: Antiproliferative activity against human MDA-MB-231 cells assessed as cell growth inhibition incubated for 72 hrs by MTS assay. The data set is classed as functional, cell-based. The following applies: MDA-MB-231, 72 h. (Formazan colour is commonly taken as a measure of viable cells.)
The next data set concerns MDA-MB-453. The data set can be described thus: Antiproliferative activity against human MDA-MB-453 cells assessed as cell growth inhibition incubated for 72 hrs by MTS assay. The data set is classed as functional, cell-based. The following applies: MDA-MB-453, 72 h.
The next data set relates to RPMI-7951. The data set can be described thus: Antiproliferative activity against human RPMI-7951 cells assessed as cell growth inhibition incubated for 72 hrs by MTS assay. The data set is classed as functional, cell-based. The conditions noted are these: RPMI-7951, 72 h.
The nature of data set [1]: Metabolic stability in human liver microsomes assessed as half life in presence of NADPH regenerating system by UPLC-MS analysis. The data set is classed as ADME, Microsome. The conditions noted are these: microsomes.
Data set [2] is described as follows: Metabolic stability in human liver microsomes assessed as intrinsic clearance in presence of NADPH regenerating system by UPLC-MS analysis. The data set is classed as ADME, Microsome. The following applies: read-out: CLH.
A further data set deals with hERG (KCNH2) (Homo sapiens, UniProt Q12809). The data set can be described thus: Inhibition of human ERG at 10 uM.
Chain of hERG (KCNH2) (Q12809 whole entry): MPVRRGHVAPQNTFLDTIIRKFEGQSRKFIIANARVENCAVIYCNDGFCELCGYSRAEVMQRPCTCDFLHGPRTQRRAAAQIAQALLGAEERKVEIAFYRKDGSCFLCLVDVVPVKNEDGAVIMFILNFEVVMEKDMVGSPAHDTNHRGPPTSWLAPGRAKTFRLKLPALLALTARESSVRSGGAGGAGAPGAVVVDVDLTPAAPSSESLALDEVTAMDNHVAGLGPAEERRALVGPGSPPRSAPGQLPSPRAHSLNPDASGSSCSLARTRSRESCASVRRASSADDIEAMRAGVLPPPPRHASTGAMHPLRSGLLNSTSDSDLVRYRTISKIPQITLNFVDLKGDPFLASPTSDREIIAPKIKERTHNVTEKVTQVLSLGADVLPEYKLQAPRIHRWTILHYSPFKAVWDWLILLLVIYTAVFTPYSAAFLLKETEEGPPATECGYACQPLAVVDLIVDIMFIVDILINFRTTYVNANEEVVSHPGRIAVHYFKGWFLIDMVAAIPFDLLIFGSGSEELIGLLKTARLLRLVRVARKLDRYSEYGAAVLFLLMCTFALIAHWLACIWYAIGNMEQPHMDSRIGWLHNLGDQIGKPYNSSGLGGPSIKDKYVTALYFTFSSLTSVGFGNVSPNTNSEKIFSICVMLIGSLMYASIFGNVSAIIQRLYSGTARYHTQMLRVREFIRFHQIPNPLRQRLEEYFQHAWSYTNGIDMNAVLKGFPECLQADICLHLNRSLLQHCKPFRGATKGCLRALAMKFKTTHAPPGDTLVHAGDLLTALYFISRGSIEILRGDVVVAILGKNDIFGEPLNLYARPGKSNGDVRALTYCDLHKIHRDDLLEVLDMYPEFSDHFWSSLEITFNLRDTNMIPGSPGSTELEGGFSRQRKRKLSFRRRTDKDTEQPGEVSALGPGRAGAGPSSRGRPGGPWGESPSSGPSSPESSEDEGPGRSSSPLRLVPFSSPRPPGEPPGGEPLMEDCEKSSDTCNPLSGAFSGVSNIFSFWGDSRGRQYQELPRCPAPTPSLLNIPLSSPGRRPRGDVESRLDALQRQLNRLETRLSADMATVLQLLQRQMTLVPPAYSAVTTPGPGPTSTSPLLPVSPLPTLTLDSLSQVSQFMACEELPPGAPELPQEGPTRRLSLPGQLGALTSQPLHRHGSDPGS
For data set [3], the target named is T1, CYP1A2 (description prints CYP1AA) (Homo sapiens, UniProt P05177).
T1 sequence (P05177 whole entry): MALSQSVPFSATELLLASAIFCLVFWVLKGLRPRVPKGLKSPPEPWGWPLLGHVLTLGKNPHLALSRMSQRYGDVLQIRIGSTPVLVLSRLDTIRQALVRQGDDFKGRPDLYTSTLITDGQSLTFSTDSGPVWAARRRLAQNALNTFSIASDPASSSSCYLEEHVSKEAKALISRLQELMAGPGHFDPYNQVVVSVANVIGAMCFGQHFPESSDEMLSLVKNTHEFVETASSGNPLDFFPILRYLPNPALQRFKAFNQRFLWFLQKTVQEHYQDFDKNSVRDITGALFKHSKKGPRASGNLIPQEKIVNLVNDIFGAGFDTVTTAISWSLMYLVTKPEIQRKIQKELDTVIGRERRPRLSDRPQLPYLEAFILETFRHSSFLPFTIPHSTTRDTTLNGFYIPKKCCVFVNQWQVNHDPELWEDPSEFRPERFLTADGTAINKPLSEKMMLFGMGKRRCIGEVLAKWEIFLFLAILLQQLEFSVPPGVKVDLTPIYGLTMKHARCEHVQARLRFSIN
The data set can be described thus: Inhibition of […] in human liver microsomes using phenacetin as substrate at 10 uM. The following applies: probe phenacetin. The data set is classed as ADME. In general terms: Liver microsomes are a subcellular fraction often used to study metabolism.

The target in the next data set is T2, CYP2B6 (Homo sapiens, UniProt P20813).
T2 sequence (P20813 whole entry): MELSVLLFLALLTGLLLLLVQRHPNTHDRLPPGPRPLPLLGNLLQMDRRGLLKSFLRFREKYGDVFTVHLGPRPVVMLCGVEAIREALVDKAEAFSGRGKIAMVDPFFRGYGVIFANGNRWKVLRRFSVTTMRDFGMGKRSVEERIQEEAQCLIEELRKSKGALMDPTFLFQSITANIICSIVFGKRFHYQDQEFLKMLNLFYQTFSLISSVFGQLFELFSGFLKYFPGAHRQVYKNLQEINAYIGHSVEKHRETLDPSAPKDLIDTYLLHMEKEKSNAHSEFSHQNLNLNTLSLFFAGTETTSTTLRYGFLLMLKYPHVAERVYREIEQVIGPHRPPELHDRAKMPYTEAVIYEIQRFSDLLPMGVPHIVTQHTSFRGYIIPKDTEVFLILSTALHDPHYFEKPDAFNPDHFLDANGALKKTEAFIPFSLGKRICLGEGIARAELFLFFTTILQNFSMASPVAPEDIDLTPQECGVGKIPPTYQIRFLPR
The data set can be described thus: Inhibition of CYP2B6 in human liver microsomes using bupropion as substrate at 10 uM. The data set is classed as ADME. The conditions noted are these: probe bupropion.

For the next data set, the target named is T3, CYP2C8 (Homo sapiens, UniProt P10632).
T3 sequence (P10632 whole entry): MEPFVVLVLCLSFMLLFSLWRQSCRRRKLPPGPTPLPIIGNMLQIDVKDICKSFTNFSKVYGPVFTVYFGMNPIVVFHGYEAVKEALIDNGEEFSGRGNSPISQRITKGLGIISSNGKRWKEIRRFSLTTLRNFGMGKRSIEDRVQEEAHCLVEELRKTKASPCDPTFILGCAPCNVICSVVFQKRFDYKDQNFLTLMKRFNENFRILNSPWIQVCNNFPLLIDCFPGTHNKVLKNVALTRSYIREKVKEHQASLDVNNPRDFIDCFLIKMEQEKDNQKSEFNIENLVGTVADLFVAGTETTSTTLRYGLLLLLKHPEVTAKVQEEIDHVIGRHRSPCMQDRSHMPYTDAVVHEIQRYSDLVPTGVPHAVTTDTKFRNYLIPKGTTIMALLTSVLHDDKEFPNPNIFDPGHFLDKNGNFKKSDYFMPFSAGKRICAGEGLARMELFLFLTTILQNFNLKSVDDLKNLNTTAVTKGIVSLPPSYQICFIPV
The data set can be described thus: Inhibition of CYP2C8 in human liver microsomes using amodiaquine as substrate at 10 uM. The conditions noted are these: probe amodiaquine. The data set is classed as ADME.

A further data set relates to CYP3A. The data set can be described thus: Inhibition of CYP3A in human liver microsomes using midazolam as substrate at 10 uM. The following applies: probe midazolam. The data set is classed as ADME.
Data set [4] has as its system Salmonella typhimurium. The data set can be described thus: Mutagenicity in Salmonella typhimurium TA98 by Ames test. The data set is classed as toxicity, organism-based. The following applies: salmonella enterica subsp. enterica serovar typhimurium.
Data set [5] has as its system Salmonella typhimurium. The data set can be described thus: Mutagenicity in Salmonella typhimurium […] by Ames test. The data set is classed as toxicity, organism-based. The following applies: salmonella enterica subsp. enterica serovar typhimurium.
Data set [6] deals with Salmonella typhimurium. The data set can be described thus: Mutagenicity in Salmonella typhimurium TA1537 by Ames test. The data set is classed as toxicity, organism-based. The conditions noted are these: salmonella enterica subsp. enterica serovar typhimurium. In general terms: In the Ames test, an excess of revertant colonies over the control signals mutagenicity.
A short description of data set [7]: Half life in NSG mouse at 10 mg/kg, ip. The data set is classed as ADME, organism-based. The conditions noted are these: in vivo.
Data set [8] in a line: Cytotoxicity against paclitaxel resistant human A-375/TxR cells measured after 72 hrs […]. The data set is classed as functional, cell-based. The following applies: A375/TxR.
The test system of another data set is M14. The data set can be described thus: Cytotoxicity against human M14 cells measured after 72 hrs […]. The data set is classed as functional, cell-based. The conditions noted are these: M14, 72 h.
Data set [9] deals with A375/TxR. The data set can be described thus: Induction of cell cycle arrest in human A375/TxR cells assessed as decrease in accumulation at S phase measured for 24 hrs by PI staining based flow cytometry analysis. The data set is classed as functional.
Data set [10] is described as follows: Antitumor activity against human A375/TxR cells xenografted in SCID mouse assessed as reduction in tumor volume at 10 mg/kg, ip administered 3 times/week for 18 days. The conditions noted are these: time 18 day. Set-up: scale not given: the % may be the effect or the level left. The data set is classed as functional.
A short description of data set [11]: Antitumor activity against human A375/TxR cells xenografted in SCID mouse assessed as tumor growth inhibition at 10 mg/kg, ip administered 3 times/week for 18 days. Set-up: scale not given: the % may be the effect or the level left. The conditions noted are these: time 18 day. The data set is classed as functional.
Data set [12] deals with A375/TxR. The data set can be described thus: Antitumor activity against human A375/TxR cells xenografted in SCID mouse assessed as tumor necrosis at 10 to 20 mg/kg, ip by H and E staining based analysis. The data set is classed as functional, organism-based. The following applies: dose 10-20 mg/kg.
Data set [13] concerns A375/TxR. The data set can be described thus: Antimetastatic activity against human A375/TxR cells xenografted in SCID mouse assessed as metastatic in lungs. The data set is classed as functional.
Data set [14] is described as follows: Systemic toxicity in human A375/TxR cells xenografted in SCID mouse tumor model assessed as pathological change in lungs at 10 to 20 mg/kg, ip by H and E staining based analysis. The following applies: in vivo, dose 10-20 mg/kg. The data set is classed as organism-based.
Data set [15] is described as follows: Systemic toxicity in human A375/TxR cells xenografted in SCID mouse tumor model assessed as pathological change in heart at 10 to 20 mg/kg, ip by H and E staining based analysis. The data set is classed as organism-based. The following applies: in vivo, dose 10-20 mg/kg.

In general, IC50 refers to the concentration that inhibits the measured activity by half. What is called inhibition is the change of the read-out against control, counted positive when it falls. By half-life is commonly meant the time in which the quantity being followed falls by half.

Calls of active or inactive are those of the source. The calls are words filed in the database; no cut-off is given here.

Turning to `COc1cc(C(=O)c2nc(-c3ccc(C)c(O)c3)ccc2F)cc(OC)c1OC`, the IC50 with MDA-MB-231 was found to be 2.2 nM; in the data set with MDA-MB-453, 1.4 nM; in the data set on RPMI-7951, 2.4 nM; in [8] it was 5.3 nM; in the data set on M14, 2.8 nM. Moreover, the t1/2 in data set [1] is 0.49 h. For the same molecule, the CLint scaled in [2] was 42.3 mL/min/kg. The inhibition at 10 µM against hERG (KCNH2) was found to be 5.14%; in [3], 50.9%; against CYP2B6, 12%; against CYP2C8 it was 92.5%; in the data set on CYP3A it was 34.7%. In addition, the Activity entry in the data set on Salmonella typhimurium [4] is “Non-Toxic”; with Salmonella typhimurium [5] it was “Non-Toxic”; in the data set with Salmonella typhimurium [6], “Non-Toxic”; with A375/TxR [9], “Dose-Dependent Effect”; in [10] it was 57.6%; in data set [11], 44.4%. In addition, the Activity result in the data set on A375/TxR [13] was “Dose-Dependent Effect”; in data set [14], “Non-Toxic”; in data set [15], “Non-Toxic”. In addition, the half-life in data set [7] was 4.39 h. In addition, the outcome in the data set with A375/TxR [12] was Active.

Source of the values: ChEMBL document CHEMBL5029155, “Design, Synthesis, and Biological Evaluation of Stable Colchicine-Binding Site Tubulin Inhibitors 6-Aryl-2-benzoyl-pyridines as Potential Anticancer Agents” (J Med Chem, 2021).
